Data published in ChEMBL document CHEMBL5030556, “Selection and Identification of Novel Antibacterial Agents against Planktonic Growth and Biofilm Formation of Enterococcus faecalis” (J Med Chem, 2021).
The source made the active and inactive calls. No cut-off for these calls is given here.

Key:
[1] = tested on: Enterococcus faecalis; experiment: Bacteriostatic activity against planktonic cells of Enterococcus faecalis OG1RF measured by microdilution broth assay; format: functional, organism-based
[2] = tested on: Streptococcus agalactiae; experiment: Antibacterial activity against Streptococcus agalactiae NSGC64 assessed as reduction in visible bacterial growth incubated for 16 to 20 hrs by microdilution broth assay; format: functional; conditions: time 16-20 hrs
[3] = Inhibition of Enterococcus faecalis OG1RF YycG autophosphorylation by Kinase-Glo luminescent kinase assay
[4] = tested on: Streptococcus agalactiae; experiment: Antibiofilm activity against Streptococcus agalactiae assessed as inhibition of biofilm formation at sub-MIC concentration; format: functional, organism-based
[5] = tested on: Enterococcus faecalis; experiment: Antibiofilm activity against Enterococcus faecalis FB-1 assessed as inhibition of biofilm maturation at 1.56 uM measured after 24 hr; format: functional, organism-based
[6] = tested on: Staphylococcus aureus; experiment: Antibacterial activity against Staphylococcus aureus ATCC 29213 assessed as reduction in visible bacterial growth incubated for 16 to 20 hrs by microdilution broth assay; format: functional; conditions: time 16-20 hrs
[7] = tested on: Enterococcus faecalis; experiment: Antibiofilm activity against Enterococcus faecalis FB-1 assessed as eradication of mature biofilm measured after 72 hrs by semiquantitative microtiter assay; format: functional
[8] = Cytotoxicity against african green monkey Vero cells assessed as inhibition of cell growth by MTT assay; format: cell-based; conditions: chlorocebus sabaeus
[9] = tested on: Enterococcus faecalis; experiment: Binding affinity to Enterococcus faecalis FB-1 YycG assessed as slow association and slow dissociation measured by Octet RED96 response assay
[10] = tested on: Enterococcus faecalis; experiment: Antibiofilm activity against Enterococcus faecalis assessed as inhibition of biofilm at 1/2 times of MIC incubated for 24 hrs; format: functional; design: scale not given: the % may be the effect or the level left
[11] = tested on: Enterococcus faecalis; experiment: Effect on initial adhesion capacity of Enterococcus faecalis assessed as attached cells at 25 uM for 6 hrs by crystal violet staining based microscopic assay (reference value: 0.412); format: functional
[12] = tested on: Enterococcus faecalis; experiment: Antibacterial activity against Enterococcus faecalis FB-1 assessed as reduction in visible bacterial growth incubated for 16 to 20 hrs by microdilution broth assay; format: functional; conditions: time 16-20 hrs
[13] = tested on: Enterococcus faecalis; experiment: Inhibition of biofilm formation of Enterococcus faecalis FB-1 assessed as inhibitory rate of formation at 100 uM for 24 hrs measured at 570 nm by crystal violet staining based spectrophotometry; format: functional
[14] = tested on: Enterococcus faecalis; experiment: Bactericidal activity against Enterococcus faecalis OG1RF assessed as reduction in bacterial colonies incubated for 16 to 20 hrs by microdilution broth analysis; format: functional; conditions: time 16-20 hrs, read-out: MBC99.9
[15] = tested on: Staphylococcus aureus; experiment: Antibacterial activity against Staphylococcus aureus ATCC 35556 assessed as reduction in visible bacterial growth incubated for 16 to 20 hrs by microdilution broth assay; format: functional; conditions: time 16-20 hrs
[16] = tested on: Staphylococcus epidermidis; experiment: Antibacterial activity against Staphylococcus epidermidis ATCC 35984 assessed as reduction in visible bacterial growth incubated for 16 to 20 hrs by microdilution broth assay; format: functional; conditions: time 16-20 hrs
[17] = tested on: Enterococcus faecalis; experiment: Antibiofilm activity against Enterococcus faecalis assessed as reduction in amount of viable biofilm-embedded bacterial cells at 50 uM measured by YTO 9/PI staining followed by confocal laser scanning microscopy; format: functional
[18] = tested on: Enterococcus faecalis; experiment: Antibiofilm activity against Enterococcus faecalis FB-1 assessed as inhibition of biofilm infection at 25 uM by fluid shear system; format: functional, organism-based
[19] = tested on: Enterococcus faecalis; experiment: Antibiofilm activity against Enterococcus faecalis FB-1 assessed as inhibition of biofilm maturation measured after 24 hr; format: functional, organism-based
[20] = tested on: Staphylococcus epidermidis; experiment: Antibacterial activity against Staphylococcus epidermidis ATCC 12228 assessed as reduction in visible bacterial growth incubated for 16 to 20 hrs by microdilution broth assay; format: functional; conditions: time 16-20 hrs
[21] = tested on: Enterococcus faecalis; experiment: Antibacterial activity against Enterococcus faecalis OG1RF assessed as reduction in visible bacterial growth incubated for 16 to 20 hrs by microdilution broth assay; format: functional; conditions: time 16-20 hrs
[22] = Hemolytic activity against human erythrocytes at 200 uM incubated for 1 hr at 570 nm by spectrophotometry; format: ADME, tissue-based, Erythrocyte; conditions: read-out: Activity
[23] = tested on: Enterococcus faecalis; experiment: Antimicrobial activity against Enterococcus faecalis OG1RF assessed as reduction in visible bacterial growth incubated for 16 to 20 hrs by microdilution broth assay; format: functional; conditions: time 16-20 hrs
[24] = tested on: Enterococcus faecalis; experiment: Antibiofilm activity against Enterococcus faecalis assessed as reduction in amount of viable biofilm-embedded bacterial cells at 50 uM in presence of ampicillin measured by YTO 9/PI staining followed by confocal laser scanning microscopy; format: functional
[25] = tested on: Escherichia coli; experiment: Antibacterial activity against Escherichia coli […] assessed as reduction in visible bacterial growth incubated for 16 to 20 hrs by microdilution broth assay; format: functional; conditions: time 16-20 hrs
[26] = tested on: Enterococcus faecium; experiment: Antibiofilm activity against Enterococcus faecium assessed as inhibition of biofilm formation at sub-MIC concentration; format: functional, organism-based
[27] = Hemolytic activity against human erythrocytes at 50 uM incubated for 1 hr at 570 nm by spectrophotometry; format: ADME, tissue-based, Erythrocyte; conditions: read-out: Activity
[28] = tested on: Staphylococcus epidermidis; experiment: Antibiofilm activity against Staphylococcus epidermidis assessed as inhibition of biofilm formation at sub-MIC concentration; format: functional, organism-based
[29] = tested on: Staphylococcus aureus; experiment: Antibiofilm activity against Staphylococcus aureus assessed as inhibition of biofilm formation at sub-MIC concentration; format: functional, organism-based
[30] = tested on: Enterococcus faecalis; experiment: Antibiofilm activity against Enterococcus faecalis FB-1 assessed as eradication of mature biofilm measured after 48 hrs by semiquantitative microtiter assay; format: functional
[31] = tested on: Enterococcus faecalis; experiment: Antibacterial activity against Enterococcus faecalis ATCC 29212 assessed as reduction in visible bacterial growth incubated for 16 to 20 hrs by microdilution broth assay; format: functional; conditions: time 16-20 hrs
[32] = tested on: Enterococcus faecium; experiment: Antibacterial activity against Enterococcus faecium EF16M64 assessed as reduction in visible bacterial growth incubated for 16 to 20 hrs by microdilution broth assay; format: functional; conditions: time 16-20 hrs
[33] = tested on: Enterococcus faecalis; experiment: Antibiofilm activity against Enterococcus faecalis assessed as reduction in amount of viable biofilm-embedded bacterial cells at 50 uM in presence of daptomycin measured by YTO 9/PI staining followed by confocal laser scanning microscopy; format: functional

COc1cc(C2C(C(=O)c3cc4ccccc4o3)=C(O)C(=O)N2c2nnc(SCc3ccccc3Cl)s2)ccc1O (stereo not given)
Activity [1]: inactive
MIC [2]: > 200 µM
IC50 [3]: 6.1 µM
Activity [4]: Active
Activity [5]: Active
MIC [6]: > 200 µM
Activity [7]: 66%
CC50 [8]: > 200 µM
Activity [9]: Active
Activity [10]: 74.8%
OD [11]: 0.143
MIC [12]: > 200 µM
inhibition at 100 µM [13]: 92.7%
MBC [14]: > 200 µM
MIC [15]: > 200 µM
MIC [16]: > 200 µM
Activity [17]: 52.85%
Activity [18]: Active
Activity [19]: Dose-Dependent Effect
MIC [20]: > 200 µM
MIC [21]: > 200 µM
hemolysis at 1 h, 200 µM [22]: 6.14%
MIC [23]: > 200 µM
Activity [24]: 72.71%
MIC [25]: > 200 µM
Activity [26]: Active
hemolysis at 1 h, 50 µM [27]: 2.77%
Activity [28]: Active
Activity [29]: Active
Activity [30]: 51%
MIC [31]: > 200 µM
MIC [32]: > 200 µM
Activity [33]: 47.16%

CC1(C)S[C@@H]2[C@H](NC(=O)[C@H](N)c3ccccc3)C(=O)N2[C@H]1C(=O)O [AMPICILLIN]
Activity [17]: 24.46%

Cc1ccc(CSc2nnc(N3C(=O)C(O)=C(C(=O)c4cc5ccccc5o4)C3c3cccc(O)c3)s2)cc1 (stereo not given)
Activity [1]: inactive
IC50 [3]: 1.5 µM
Activity [5]: Active
CC50 [8]: > 200 µM
inhibition at 100 µM [13]: 77.7%
MBC [14]: > 200 µM
Activity [17]: 46.93%
Activity [19]: Dose-Dependent Effect
hemolysis at 1 h, 200 µM [22]: 6.32%
MIC [23]: > 200 µM
hemolysis at 1 h, 50 µM [27]: 4.7%
